Experimental data as given in US6525001B1, “Substituted pyrimidine and pyridine herbicides” (Mid-American Commercialization Corporation, priority 1997, dated 2003).

Legend:
Assay type in all cases: in vivo
[1] = tested on: blackgrass (Alopecurus myosuroides); assay: Test B pre-/postemergence; set-up: key: 0 is no effect; 10 is complete control
Procedure, shortened: (§1)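 Seeds were planted and sprayed preemergence, while plants at 2 to 18 cm (1- to 4-leaf stage) were sprayed postemergence at the same time, with test chemical in a non-phytotoxic solvent mixture containing surfactant. After twelve to sixteen days in a greenhouse, injury was rated visually against untreated controls on a 0–10 scale.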

[2] = tested on: crabgrass (Digitaria sanguinalis); assay: Test B pre-/postemergence; set-up: key: 0 is no effect; 10 is complete control
Procedure, shortened: as §1

[3] = tested on: purple nutsedge (Cyperus rotundus); assay: Test B pre-/postemergence; set-up: key: 0 is no effect; 10 is complete control
Procedure, shortened: as §1

soybean (Glycine max) = assay: Test B pre-/postemergence; set-up: key: 0 is no effect; 10 is complete control
Procedure, shortened: as §1

wild oat (Avena fatua) = assay: Test B pre-/postemergence; set-up: key: 0 is no effect; 10 is complete control
Procedure, shortened: as §1

[4] = tested on: lambsquarters (Chenopodium album); assay: Test C; set-up: key: 0 was no effect; 100 was complete control; details: PREEMERGENCE
[5] = tested on: purple nutsedge (Cyperus rotundus); assay: Test C; set-up: key: 0 was no effect; 100 was complete control; details: PREEMERGENCE
[6] = tested on: common groundsel (Senecio vulgaris); assay: Test E pre-/postemergence/post directed; set-up: key: 0 is no effect; 100 is complete control; details: PREEMERGENCE
Procedure, shortened: (§2)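 Greenhouse pots; compound in non-phytotoxic solvent with surfactant, sprayed preemergence within one day of planting, postemergence at two to four leaf stage (three to twenty cm), or post directed to plant base and soil. Visual injury rated 13 to 21 days after application, 0 (none) to 100 (complete control).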

[7] = tested on: dallisgrass (Paspalum dilatatum); assay: Test E pre-/postemergence/post directed; set-up: key: 0 is no effect; 100 is complete control
Procedure, shortened: as §2

[8] = tested on: guineagrass (Panicum maximum); assay: Test E pre-/postemergence/post directed; set-up: key: 0 is no effect; 100 is complete control
Procedure, shortened: as §2

[9] = tested on: sourgrass (Trichachne insularis); assay: Test E pre-/postemergence/post directed; set-up: key: 0 is no effect; 100 is complete control
Procedure, shortened: as §2

[10] = tested on: tall mallow (Malva sylvestris); assay: Test E pre-/postemergence/post directed; set-up: key: 0 is no effect; 100 is complete control; details: PREEMERGENCE
Procedure, shortened: as §2

Cc1cnc(-n2ccc(C(F)(F)F)n2)nc1Cc1cccc(C(F)(F)F)c1 [Example 2, 5-methyl-4-[[3-(trifluoromethyl)phenyl]methyl]-2-[3-(trifluoromethyl)-1H-pyrazol-1-yl]pyrimidine]
Plant response rating, Blackgrass ([1]; Rate 62 g/ha, Postemergence): 3 | Blackgrass plant response rating ([1]; Rate 62 g/ha, Preemergence): 3 | Plant response rating, Blackgrass ([1]; Rate 125 g/ha, Postemergence): 6 | Blackgrass plant response rating ([1]; Rate 125 g/ha, Preemergence): 7 | Plant response rating, Blackgrass ([1]; Rate 250 g/ha, Postemergence): 7 | Plant response rating, Blackgrass ([1]; Rate 250 g/ha, Preemergence): 10 | Plant response rating, Blackgrass ([1]; Rate 500 g/ha, Postemergence): 9 | Plant response rating, Blackgrass ([1]; Rate 500 g/ha, Preemergence): 10 | Plant response rating, Crabgrass ([2]; Rate 62 g/ha, Postemergence): 8 | Crabgrass plant response rating ([2]; Rate 62 g/ha, Preemergence): 9 | Plant response rating, Crabgrass ([2]; Rate 125 g/ha, Postemergence): 9 | Crabgrass plant response rating ([2]; Rate 125 g/ha, Preemergence): 10 | Plant response rating, Crabgrass ([2]; Rate 250 g/ha, Postemergence): 9 | Plant response rating, Crabgrass ([2]; Rate 250 g/ha, Preemergence): 10 | Plant response rating, Crabgrass ([2]; Rate 500 g/ha, Postemergence): 10 | Plant response rating, Crabgrass ([2]; Rate 500 g/ha, Preemergence): 10 | Plant response rating, Nutsedge ([3]; Rate 62 g/ha, Postemergence): 0 | Nutsedge plant response rating ([3]; Rate 62 g/ha, Preemergence): 0 | Plant response rating, Nutsedge ([3]; Rate 125 g/ha, Postemergence): 0 | Nutsedge plant response rating ([3]; Rate 125 g/ha, Preemergence): 0 | Plant response rating, Nutsedge ([3]; Rate 250 g/ha, Preemergence): 0 | Plant response rating, Nutsedge ([3]; Rate 500 g/ha, Postemergence): 2 | Plant response rating, Nutsedge ([3]; Rate 500 g/ha, Preemergence): 0 | Plant response rating, Soybean (soybean (Glycine max); Rate 62 g/ha, Postemergence): 6 | Soybean plant response rating (soybean (Glycine max); Rate 62 g/ha, Preemergence): 0 | Plant response rating, Soybean (soybean (Glycine max); Rate 125 g/ha, Postemergence): 7 | Soybean plant response rating (soybean (Glycine max); Rate 125 g/ha, Preemergence): 1 | Plant response rating, Soybean (soybean (Glycine max); Rate 250 g/ha, Postemergence): 8 | Plant response rating, Soybean (soybean (Glycine max); Rate 250 g/ha, Preemergence): 2 | Plant response rating, Soybean (soybean (Glycine max); Rate 500 g/ha, Postemergence): 8 | Plant response rating, Soybean (soybean (Glycine max); Rate 500 g/ha, Preemergence): 5 | Plant response rating, Wild oats (wild oat (Avena fatua); Rate 62 g/ha, Postemergence): 3 | Wild oats plant response rating (wild oat (Avena fatua); Rate 62 g/ha, Preemergence): 6 | Plant response rating, Wild oats (wild oat (Avena fatua); Rate 125 g/ha, Postemergence): 3 | Wild oats plant response rating (wild oat (Avena fatua); Rate 125 g/ha, Preemergence): 9 | Plant response rating, Wild oats (wild oat (Avena fatua); Rate 250 g/ha, Postemergence): 6 | Plant response rating, Wild oats (wild oat (Avena fatua); Rate 250 g/ha, Preemergence): 9 | Plant response rating, Wild oats (wild oat (Avena fatua); Rate 500 g/ha, Postemergence): 7 | Plant response rating, Wild oats (wild oat (Avena fatua); Rate 500 g/ha, Preemergence): 10 | Plant response rating, Lambsquarters ([4]; Rate 35 g/ha): 0 | Plant response rating, Lambsquarters ([4]; Rate 140 g/ha): 100 | Plant response rating, Purple nutsedge ([5]; Rate 35 g/ha): 0 | Plant response rating, Purple nutsedge ([5]; Rate 70 g/ha): 0 | Plant response rating, Purple nutsedge ([5]; Rate 140 g/ha): 0 | Plant response rating, Com. groundsel ([6]; Rate 32 g/ha): 100 | Plant response rating, Com. groundsel ([6]; Rate 64 g/ha): 100 | Plant response rating, Com. groundsel ([6]; Rate 125 g/ha): 100 | Plant response rating, Com. groundsel ([6]; Rate 250 g/ha): 100 | Plant response rating, Com. groundsel ([6]; Rate 500 g/ha): 100 | Plant response rating, Dallisgrass ([7]; POSTEMERGENCE, Rate 32 g/ha): 10 | Plant response rating, Dallisgrass ([7]; POSTEMERGENCE, Rate 64 g/ha): 40 | Plant response rating, Dallisgrass ([7]; POSTEMERGENCE, Rate 125 g/ha): 70 | Plant response rating, Dallisgrass ([7]; POSTEMERGENCE, Rate 250 g/ha): 90 | Plant response rating, Dallisgrass ([7]; POSTEMERGENCE, Rate 500 g/ha): 95 | Plant response rating, Dallisgrass ([7]; PREEMERGENCE, Rate 32 g/ha): 90 | Plant response rating, Dallisgrass ([7]; PREEMERGENCE, Rate 64 g/ha): 100 | Plant response rating, Dallisgrass ([7]; PREEMERGENCE, Rate 125 g/ha): 100 | Plant response rating, Dallisgrass ([7]; PREEMERGENCE, Rate 250 g/ha): 100 | Plant response rating, Dallisgrass ([7]; PREEMERGENCE, Rate 500 g/ha): 100 | Plant response rating, Guineagrass ([8]; POSTEMERGENCE, Rate 32 g/ha): 5 | Plant response rating, Guineagrass ([8]; POSTEMERGENCE, Rate 125 g/ha): 50 | Plant response rating, Guineagrass ([8]; POSTEMERGENCE, Rate 250 g/ha): 50 | Plant response rating, Guineagrass ([8]; POSTEMERGENCE, Rate 500 g/ha): 90 | Plant response rating, Guineagrass ([8]; PREEMERGENCE, Rate 32 g/ha): 50 | Plant response rating, Guineagrass ([8]; PREEMERGENCE, Rate 64 g/ha): 50 | Plant response rating, Guineagrass ([8]; PREEMERGENCE, Rate 125 g/ha): 100 | Plant response rating, Guineagrass ([8]; PREEMERGENCE, Rate 250 g/ha): 100 | Plant response rating, Sourgrass ([9]; POSTEMERGENCE, Rate 32 g/ha): 10 | Plant response rating, Sourgrass ([9]; POSTEMERGENCE, Rate 64 g/ha): 20 | Plant response rating, Sourgrass ([9]; POSTEMERGENCE, Rate 125 g/ha): 20 | Plant response rating, Sourgrass ([9]; POSTEMERGENCE, Rate 250 g/ha): 40 | Plant response rating, Sourgrass ([9]; POSTEMERGENCE, Rate 500 g/ha): 80 | Plant response rating, Sourgrass ([9]; PREEMERGENCE, Rate 32 g/ha): 100 | Plant response rating, Sourgrass ([9]; PREEMERGENCE, Rate 64 g/ha): 100 | Plant response rating, Sourgrass ([9]; PREEMERGENCE, Rate 125 g/ha): 100 | Plant response rating, Sourgrass ([9]; PREEMERGENCE, Rate 250 g/ha): 100 | Plant response rating, Sourgrass ([9]; PREEMERGENCE, Rate 500 g/ha): 100 | Plant response rating, Tall Mallow ([10]; Rate 32 g/ha): 98 | Plant response rating, Tall Mallow ([10]; Rate 64 g/ha): 100 | Plant response rating, Tall Mallow ([10]; Rate 125 g/ha): 100 | Plant response rating, Tall Mallow ([10]; Rate 250 g/ha): 100 | Plant response rating, Tall Mallow ([10]; Rate 500 g/ha): 100
